Consider two sequences from patent EP4112728A1, “METHOD FOR I[…]-BINDING PEPTIDES” (ETH Zürich, priority 2021, dated 2023).

Experiment [1] relates to other clinically relevant Gram negative and positive bacteria. Nature of the experiment: Minimal inhibitory concentration (MIC) against other strains. Type of experiment: cell-based. The note with it: range over the strains tested (FIG.21).
The test system of experiment [2] is cspA promoter. Description: Stress response assay, cold shock response (PcspA-gfp) indicating translation inhibition. The experiment is classed as cell-based, E. coli. The note with it: GFP under cspA promoter, relative to inactive control HNP-1; one sided t-test, adj. p<0.05. An excerpt:
Lastly, the inventors characterized the 50 most growth inhibitory (38 SIMILARS, 12 PARENTS) peptides using different assays (FIG.18). The inventors first used two biosensor constructs, containing the cspA and recA promoters, which upon activation are indicative of translation impairment and DNA damage, respectively. […] Next, the inventors measured membrane damage by quantifying propidium iodide (PI) uptake.
The inventors selected peptide-expressing strains of rank 1-50, previously generated for the monoseptic growth assay. […] Moreover, two plasmids (cloning vector: puA66) containing either the promoter of the gene for recombinase A (PrecA) or for the gene for cold shock protein A (PcspA) were purified from the E. coli Alon collection. Both plasmids contained a transcriptional fusion of their promoter with a downstream gene for green fluorescent protein (gfp), an additional kanamycin resistance cassette and a pSC101 origin of replication. […] The inventors recorded OD and GFP expression (λEx 488 nm/λEm 530nm) after 1.5 h and 4.5 h using a Tecan Infinite 200 PRO (37 °C, 1.5 mm orbital shaking). For each strain, the inventors calculated the specific fluorescence change between the two time points (GFP/OD (4.5 h) - GFP/OD (1.5 h)). Statistical significance was calculated by one sided t-tests, adjusted for multiple testing by Benjamini-Hochberg, using the signal of HNP-13425 APD

In turn, “GWFKKAWRKVKHAGRRVLDTAKGVGRHYLNNWLNRYR [ID 4545]” displayed an MIC in experiment [1] of 0.4 to 5.6 µM. Take VDKGGYLPRPTPPRPVYR [ID 7122]: the translational impairment result in experiment [2] is reported as “strongest indication for translational impairment”.
